Assay [1] has as its target D(2) dopamine receptor (Homo sapiens, UniProt P14416). As to the kind of experiment: Displacement of [3H]spiperone from human dopamine D2 receptor.
Assay [2] deals with D(1A) dopamine receptor (Homo sapiens, UniProt P21728). As to the kind of experiment: Displacement of [3H]SCH23390 from human dopamine D1 receptor. In general terms: In a radioligand displacement assay an active substance lowers the binding of a labelled ligand.
Assay [3] has as its target D(3) dopamine receptor (Homo sapiens, UniProt P35462). The experiment in a line: Binding affinity to human dopamine D3 receptor by radioligand binding assay.
Assay [4] deals with D(1B) dopamine receptor (Homo sapiens, UniProt P21918). As to the kind of experiment: Binding affinity to human dopamine D5 receptor by radioligand binding assay.
Assay [5] deals with T1, D(4) dopamine receptor (Homo sapiens, UniProt P21917).
T1 sequence (P21917 whole entry): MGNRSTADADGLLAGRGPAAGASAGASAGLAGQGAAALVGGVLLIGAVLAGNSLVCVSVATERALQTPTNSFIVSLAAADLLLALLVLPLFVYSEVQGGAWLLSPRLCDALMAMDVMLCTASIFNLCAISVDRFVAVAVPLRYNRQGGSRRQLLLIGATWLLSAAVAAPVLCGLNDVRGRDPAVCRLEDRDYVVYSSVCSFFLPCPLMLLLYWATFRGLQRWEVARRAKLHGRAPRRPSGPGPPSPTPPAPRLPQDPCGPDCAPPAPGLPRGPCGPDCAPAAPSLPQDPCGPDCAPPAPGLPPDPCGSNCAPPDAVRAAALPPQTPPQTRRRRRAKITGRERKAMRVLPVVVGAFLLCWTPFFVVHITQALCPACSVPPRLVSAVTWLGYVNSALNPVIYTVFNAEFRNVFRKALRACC
As to the kind of experiment: Binding affinity to human dopamine D4 receptor by radioligand binding assay.

Assay [6] is filed under the species Homo sapiens. The experiment in a line: Selectivity ratio of Ki for human dopamine D2 receptor to Ki for human dopamine D4 receptor.

From ChEMBL document CHEMBL2417399, “Discovery of highly potent and selective D4 ligands by interactive SAR study” (Bioorg Med Chem Lett, 2013) come the findings set out here.

Each structure is given as a SMILES string. A value given as a limit tells only on which side of the number the result lay.

Chain of D(1B) dopamine receptor (P21918 whole entry): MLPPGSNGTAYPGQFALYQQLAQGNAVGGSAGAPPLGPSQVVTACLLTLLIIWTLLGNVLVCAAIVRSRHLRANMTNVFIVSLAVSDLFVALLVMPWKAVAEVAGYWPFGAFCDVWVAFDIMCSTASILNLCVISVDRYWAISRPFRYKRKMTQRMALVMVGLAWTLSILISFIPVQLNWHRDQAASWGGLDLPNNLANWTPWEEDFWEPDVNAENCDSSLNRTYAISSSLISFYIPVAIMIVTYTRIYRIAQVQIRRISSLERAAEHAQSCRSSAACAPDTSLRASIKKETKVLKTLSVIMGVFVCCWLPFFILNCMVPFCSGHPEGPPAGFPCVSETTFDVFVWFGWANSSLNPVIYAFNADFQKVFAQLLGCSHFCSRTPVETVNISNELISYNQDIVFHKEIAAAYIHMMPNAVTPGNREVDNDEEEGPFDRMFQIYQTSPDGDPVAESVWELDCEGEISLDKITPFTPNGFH
Chain of D(2) dopamine receptor (P14416 whole entry): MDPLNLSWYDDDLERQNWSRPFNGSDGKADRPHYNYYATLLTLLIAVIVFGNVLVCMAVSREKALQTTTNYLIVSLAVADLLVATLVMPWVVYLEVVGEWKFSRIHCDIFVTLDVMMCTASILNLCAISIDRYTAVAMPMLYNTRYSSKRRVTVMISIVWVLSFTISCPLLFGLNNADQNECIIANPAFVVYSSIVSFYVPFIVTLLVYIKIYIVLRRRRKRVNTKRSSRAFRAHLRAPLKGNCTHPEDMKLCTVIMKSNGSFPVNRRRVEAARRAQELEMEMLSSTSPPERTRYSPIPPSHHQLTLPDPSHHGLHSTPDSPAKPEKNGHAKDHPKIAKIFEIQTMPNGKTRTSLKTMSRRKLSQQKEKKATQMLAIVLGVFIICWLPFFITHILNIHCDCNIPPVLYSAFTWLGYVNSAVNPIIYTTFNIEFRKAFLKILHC
Chain of D(3) dopamine receptor (P35462 whole entry): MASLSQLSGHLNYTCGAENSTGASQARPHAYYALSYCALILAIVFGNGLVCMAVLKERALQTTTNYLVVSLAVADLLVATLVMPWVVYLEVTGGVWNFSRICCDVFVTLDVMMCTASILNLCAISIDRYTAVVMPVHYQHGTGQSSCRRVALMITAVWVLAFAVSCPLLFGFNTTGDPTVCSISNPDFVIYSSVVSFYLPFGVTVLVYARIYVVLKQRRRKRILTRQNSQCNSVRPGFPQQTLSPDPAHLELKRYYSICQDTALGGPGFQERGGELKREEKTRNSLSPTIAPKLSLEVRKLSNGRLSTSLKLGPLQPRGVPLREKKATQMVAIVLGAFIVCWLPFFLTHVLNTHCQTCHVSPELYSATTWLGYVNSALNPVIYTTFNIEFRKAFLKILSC
Chain of D(1A) dopamine receptor (P21728 whole entry): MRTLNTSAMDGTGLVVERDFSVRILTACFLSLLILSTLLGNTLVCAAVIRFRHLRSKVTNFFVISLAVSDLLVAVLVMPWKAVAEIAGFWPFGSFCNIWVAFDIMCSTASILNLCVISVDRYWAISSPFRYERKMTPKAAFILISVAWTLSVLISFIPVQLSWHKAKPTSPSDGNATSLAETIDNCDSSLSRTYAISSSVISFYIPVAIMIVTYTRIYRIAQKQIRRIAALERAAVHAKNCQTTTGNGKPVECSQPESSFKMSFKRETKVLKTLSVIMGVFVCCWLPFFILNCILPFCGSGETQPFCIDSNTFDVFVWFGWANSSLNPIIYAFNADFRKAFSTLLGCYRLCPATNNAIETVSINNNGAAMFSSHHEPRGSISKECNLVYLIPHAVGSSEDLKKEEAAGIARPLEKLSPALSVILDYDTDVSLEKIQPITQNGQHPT

Usually Ki stands for a measure of affinity in units of concentration, obtained from inhibition or displacement. Low readings indicate higher affinity, high ones lower affinity. As for `CCOc1ccccc1N1CCN(Cc2cccnc2)CC1`, the inhibition constant Ki in assay [1] is 255 nM; in assay [2], greater than 10000 nM; in assay [3], 42 nM; in assay [4], greater than 10000 nM; in assay [5], 0.7 nM.
As to `CCOc1ccccc1N1CCN(Cc2cccs2)CC1`, the Ki in assay [1] is 162 nM; in assay [2], greater than 10000 nM; in assay [3], 112 nM; in assay [4], greater than 10000 nM; in assay [5] it was 3.9 nM. Besides, the Ratio Ki in assay [6] came out at 14.
Regarding `Clc1cccc(N2CCN(Cc3csc4ccccc34)CC2)c1Cl`, the Ki in assay [1] is 383 nM; in assay [2], greater than 10000 nM; in assay [3] it was 52.5 nM; in assay [4], greater than 10000 nM; in assay [5], 22.5 nM.
On to `CCOc1ccccc1N1CCN(Cc2c[nH]c3ccccc23)CC1`, for which the inhibition constant Ki is 473 nM in assay [1]; greater than 10000 nM in assay [2]; 103 nM in assay [3]; greater than 10000 nM in assay [4]; 0.03 nM in assay [5].
With `Clc1cccc(N2CCN(Cc3cccnc3)CC2)c1Cl`, the Ki in assay [1] was 327 nM; in assay [2], greater than 10000 nM; in assay [3], 41 nM; in assay [4], greater than 10000 nM; in assay [5], 4.4 nM.
For `Clc1ccc(N2CCN(Cc3cc4ccccn4n3)CC2)cc1`, the Ki in assay [1] came to 3200 nM; in assay [3], 5000 nM; in assay [5] it was 3.1 nM.
Turning to `CCOc1ccccc1N1CCN(Cc2csc3ccccc23)CC1`, the Ki in assay [1] is 219 nM; in assay [2], greater than 10000 nM; in assay [3] it was 45.1 nM; in assay [4], greater than 10000 nM; in assay [5] it was 4.5 nM.
Turning to `Clc1cccc(N2CCN(Cc3cccc4ccccc34)CC2)c1Cl`, the Ki was 351 nM in assay [1]; greater than 10000 nM in assay [2]; 92 nM in assay [3]; greater than 10000 nM in assay [4]; 31 nM in assay [5].
Turning to `Clc1cccc(N2CCN(Cc3c[nH]c4ccccc34)CC2)c1Cl`, the Ki was greater than 10000 nM in assay [2], 123 nM in assay [3], greater than 10000 nM in assay [4] and 6.2 nM in assay [5].
As to `CCOc1ccccc1N1CCN(Cc2cccc3ccccc23)CC1`, the Ki in assay [1] was 264 nM; in assay [2], greater than 10000 nM; in assay [3] it was 59 nM; in assay [4], greater than 10000 nM; in assay [5], 2 nM.
